US7750155B2, “Pyrazinyl hydroxyacrylamide compounds having an inhibitory effect on the activity of histone deacetylase” (Astellas Pharma Inc., priority 2006, dated 2010)
pIC50: −log10 of the molar value.

Experiments:
[1] = tested on: T1, human histone deacetylase partially purified from human T cell leukemia Jurkat cells; assay: Test 1: Determination of histone deacetylase inhibitor activity ([3H]acetyl histone deacetylation); assay type: biochemical; settings: partially purified human HDAC from Jurkat cells, [3H]acetyl histone substrate, 25° C., 30 minutes; read-out: Test 1: HDAC inhibitory activity IC50
T1 construct: The human histone deacetylase was partially purified from human T cell leukemia Jurkat cells
Protocol: Test 1: Determination of Histone Deacetylase Inhibitor Activity
The partial purification of human histone deacetylase, the preparation of [^3H] acetyl histones, and the assay for histone deacetylase activity were performed basically according to the method as proposed by Yoshida et al. as follows.
Partial Purification of Human Histone Deacetylase
The human histone deacetylase was partially purified from human T cell leukemia Jurkat cells. Jurkat cells (5×10^8 cells) were suspended in 40 mL of the HDA buffer consisting of 15 mM potassium phosphate, pH 7.5, 5% glycerol and 0.2 mM EDTA. After homogenization, nuclei were collected by centrifugation (35,000×g, 10 min) and homogenized in 20 mL of the same buffer supplemented with 1 M (NH4)2SO4. The viscous homogenate was sonicated and clarified by centrifugation (35,000×g, 10 min), and the deacetylase was precipitated by raising the concentration of (NH4)2SO4 to 3.5 M. The precipitated protein was dissolved in 10 mL of the HDA buffer and dialyzed against 4 liters of the same buffer. The dialyzate was then loaded onto a DEAE-cellulose (Whatman DE52) column (25×85 mm) equilibrated with the same buffer and eluted with 300 mL of a linear gradient (0-0.6 M) of NaCl. A single peak of histone deacetylase activity appeared between 0.3 and 0.4 M NaCl.
Preparation of [^3H] Acetyl Histone
To obtain [^3H] acetyl-labeled histone as the substrate for the histone deacetylase assay, 1×10^8 cells of Jurkat in 20 mL of RPMI-1640 medium (supplemented with 10% FBS, penicillin (50 units/mL) and streptomycin (50 μg/mL)) were incubated with 300 MBq [^3H] sodium acetate in the presence of 5 mM sodium butyrate for 30 minutes in 5% CO2-95% air atmosphere at 37° C. in a […] flask, harvested into a centrifuge tube (50 mL), collected by centrifugation at 1000 rpm for 10 minutes, and washed once with phosphate-buffered saline. The washed cells were suspended in 15 mL of ice-cold lysis buffer (10 mM Tris-HCl, 50 mM sodium bisulfite, 1% Triton X-100, 10 mM MgCl2, 8.6% sucrose, pH 6.5). After Dounce homogenization (30 stroke), the nuclei were collected by centrifugation at 1000 rpm for 10 minutes, washed 3 times with 15 mL of the lysis buffer, and once with 15 mL of ice-cooled washing buffer (10 mM Tris-HCl, 13 mM EDTA, pH 7.4) successively. The pellet was suspended in 6 mL of ice-cooled water using a mixer, and 68 μl of H2SO4 was added to the suspension to give a concentration of 0.4 N. After incubation at 4° C. for 1 hour, the suspension was centrifuged for 5 minutes at 15,000 rpm, and the supernatant was taken and mixed with 60 mL of acetone. After overnight incubation at −20° C., the coagulated material was collected by microcentrifugation, air-dried, and stored at −80° C.
Assay for Histone Deacetylase Activity
For the standard assay, 10 μl of [^3H] acetyl-labeled histones were added to 90 μl of the enzyme fraction, and the mixture was incubated at 25° C. for 30 minutes. The reaction was stopped by addition of 10 μl of HCl. The released [^3H] acetic acid was extracted with 1 mL of ethyl acetate, and 0.9 mL of the solvent layer was taken into 10 mL of toluene scintillation solution for determination of radioactivity.

[2] = tested on: blood corpuscles (platelet, white blood corpuscle); assay: Test 4: Measurement of change rate of blood corpuscles; assay type: in vivo; settings: 4 mg/kg oral once a day for 14 days, male LEW rats, blood 24 hr after last administration
Protocol: Test 4: Measurement of Change Rate of Blood Corpuscles Experimental drugs were oral administered to rats (male LEW) once a day for continuous 14 days. The blood sample contained heparin and EDTA were collected at 24 hr after last administration, and the number of differential blood corpuscles were measured by auto-hemocytometer (Sysmex).

[3] = tested on: splenic cells of Lewis rats (T lymphocyte blastogenesis); assay: Test 2: T-cell growth inhibitor activity (T lymphocyte blastogenesis, Concanavalin A, AlamarBlue); assay type: cell-based; settings: Lewis rat splenic cells, Concanavalin A 1 μg/mL, 72 hours, read-out: Test 2: T-cell growth inhibitory activity IC50
Protocol: Test 2: Determination of T-Cell Growth Inhibitor Activity
The T lymphocyte blastogenesis test was performed in microtiter plates with each well containing 1.5×10^5 splenic cells of Lewis rats in 0.1 mL RPMI-1640 medium supplemented with 10% fetal bovine serum (FBS), […] 2-mercaptoethanol, penicilln (100 units/mL) and streptomycin (100 μg/mL), to which Concanavalin A (1 μg/mL) was added. The cells were incubated at 37° C. in a humidified atmosphere of 5% CO2 for 72 hours. After the culture period, suppressive activities of the test compounds in T lymphocyte blastogenesis were quantified by AlamarBlue (trademark) Assay. The test samples were dissolved in DMSO and further diluted with RPMI-1640 medium and added to the culture. The activities of the test compounds were expressed as IC50.

SMILES | pIC50 [1] | decrease rate (%) platelet [2] | decrease rate (%) white blood corpuscle [2] | pIC50 [3]
COc1ccc(CCN2CC[C@@H](Nc3cnc(/C=C/C(=O)NO)cn3)C2)cc1.Cl.Cl [Example 18, (2E)-N-hydroxy-3-[5-({(3R)-1-[2-(4-methoxyphenyl)ethyl]-3-pyrrolidinyl}amino)-2-pyrazinyl]acrylamide dihydrochloride] | 8.66 | 3.4% | 31.7% | 8.66
Cl.Cl.O=C(/C=C/c1cnc(N[C@@H]2CCN(CCc3ccc(Cl)cc3)C2)cn1)NO [Example 23, (2E)-3-[5-({(3R)-1-[2-(4-chlorophenyl)ethyl]-3-pyrrolidinyl}amino)-2-pyrazinyl]-N-hydroxyacrylamide dihydrochloride] | 8.70 | 18.6% | 64.6% | 8.77
Cl.Cl.O=C(/C=C/c1cnc(N[C@@H]2CCCN(CCc3cccc(F)c3)C2)cn1)NO [Example 6, (2E)-3-[5-({(3R)-1-[2-(3-fluorophenyl)ethyl]-3-piperidinyl}amino)-2-pyrazinyl]-N-hydroxyacrylamide dihydrochloride] | 8.77 | 24.3% | 72.2% | 9.19
Cl.Cl.O=C(/C=C/c1cnc(N[C@@H]2CCN(CCc3ccc(Br)cc3)C2)cn1)NO [Example 19, (2E)-3-[5-({(3R)-1-[2-(4-bromophenyl)ethyl]-3-pyrrolidinyl}amino)-2-pyrazinyl]-N-hydroxyacrylamide dihydrochloride] | 8.80 | 14.2% | 38.1% | 8.89
Cl.Cl.O=C(/C=C/c1cnc(N[C@@H]2CCCN(CCC3CCCCC3)C2)cn1)NO [Example 25, (2E)-3-(5-{[(3R)-1-(2-cyclohexylethyl)-3-piperidinyl]amino}-2-pyrazinyl)-N-hydroxyacrylamide dihydrochloride] | 8.74 | 6.2% | 63.1% | 8.66
Cl.Cl.O=C(/C=C/c1cnc(N[C@@H]2CCN(CCc3ccc(F)c(F)c3)C2)cn1)NO [Example 5, (2E)-3-[5-({(3R)-1-[2-(3,4-difluorophenyl)ethyl]-3-pyrrolidinyl}amino)-2-pyrazinyl]-N-hydroxyacrylamide dihydrochloride] | 8.48 | 9.4% | 40.3% | 9.03
Cl.Cl.O=C(/C=C/c1cnc(N[C@@H]2CCN(CCc3cccc(F)c3)C2)cn1)NO [Example 1, (2E)-3-[5-({(3R)-1-[2-(3-fluorophenyl)ethyl]-3-pyrrolidinyl}amino)-2-pyrazinyl]-N-hydroxyacrylamide dihydrochloride] | 8.64 | 18.3% | 43.7% | 8.62
